Values of other authors as cited in patent US6974685B2, “High production method of prenyl alcohol using saccharomyces cells” (Toyota Jidosha Kabushiki Kaisha 1, priority 2000, dated 2005).

System: erg mutant of Saccharoinyces cerevisiae
Conditions: Curr. Genet., 18, 41-46 (1990)

CC(C)=CCCC(C)=CCCC(C)=CCO [FOH, farnesol]
farnesol production: 1 mg/L
